Measured values as given in patent US20250144187A1, “COMBINATION OF HYDROLASES AND ANTI-MICROORGANISM DRUGS AND USES THEREOF” (CENTRE FOR EYE AND VISION RESEARCH LIMITED, priority 2023, published 2025).

How the values were obtained:
MRSA [1] = test: High-throughput screening of 1953 FDA-approved compounds with human lysozyme; format: cell-based, Staphylococcus aureus; details: compound 25 μM + 1 mg/ml lysozyme, 24-hour
Procedure: (§1) 1) High-throughput screening. According to standard screening method [Zhong. […] Commun. 11, 523 (2020)], 1953 FDA-approved compounds from our drugs library at a fixed concentrations of 25 μM were screened against methicillin-resistant Staphylococcus aureus (MRSA) and Staphylococcus epidermis (a coagulase negative Staphylococci, MRSE), in combination with human lysozyme. Specifically, these compounds were added into bacterial suspensions (1×10^5 CFU/ml, in LB medium) in the absence or presence of 1 mg/ml lysozyme. LB medium without bacteria served as background group. Then, the real-time growth curvet of MRSA were monitored per hour and for 24 hours. Absorbance at 600 am (OD600) of bacterial culture at the time point of 24-hour was also measured. The inhibition ratio (%) was calculated as (ODcontrol−ODsample)/(ODcontrol−ODbackground)×100%. […] Herein, the relative and apparent inhibition ratios indicated the combination effect and potential toxicity of compound, respectively. Synergy effect was defined as the relative inhibition ratio of ≥90%. All assays were performed in triplicate.

MRSE [2] = test: as above; format: cell-based, Staphylococcus epidermis; details: compound 25 μM + 1 mg/ml lysozyme, 24-hour
Procedure: as §1

MRSA [3] = test: High-throughput screening of 4989 compounds with human lysozyme; format: cell-based, Staphylococcus aureus; details: for MRSA Combination / MRSA Drug only: OD600 at 24-hour; for MRSA Combination: compound 2.5 μM + 1 mg/ml lysozyme; for MRSA Drug only: compound 2.5 μM without lysozyme; for MRSA Inhibition ratio (%): compound 2.5 μM + 1 mg/ml lysozyme relative to compound only
Procedure: 1) High-throughput screening. […] Specifically, these compounds were added into bacterial suspensions (1×10^6 CFU/ml) in the […] microliter plate, in which each well contained 50 μl of lysogeny broth (LB) medium with or without 1 mg/ml lysozyme. LB medium in the absence of bacteria served as background group. Then, the real-time growth curves of MRSA were monitored per hour and for 24 hours. Experiments were performed with the biological replicates. Fly analyzing the absorbance 600 nm (OD600) of bacterial culture at the time point of 24-hour, the inhibition ratio (%) was calculated according to (ODcontrol−ODsample)/(ODcontrol−ODbackground)×100%. Here, the relative and apparent inhibition ratios were figured out by using the absorbance of bacterial suspension only containing compound and that without any drug treatment as ODcontrol, respectively. The relative and apparent inhibition ratios indicated the combination effect and potential toxicity of compound in combination effect. Synergy effect was defined as the relative inhibition ratio of ≥90%.

MRSE [4] = test: as above; format: cell-based, Staphylococcus epidermis; details: for MRSE Combination / MRSE Drug only: OD600 at 24-hour; for MRSE Combination: compound 2.5 μM + 1 mg/ml lysozyme; for MRSE Drug only: compound 2.5 μM without lysozyme; for MRSE Inhibition ratio (%): compound 2.5 μM + 1 mg/ml lysozyme relative to compound only
MRSA [5] = test: Check board broth micro-dilution assay, tedizolid phosphate with lysozyme; format: cell-based, Staphylococcus aureus
Procedure: 2) Check board broth micro-dilution assays. According to standard two-fold dilution method [Sun. H et al., Nat. Commun. 11, 5263 (2020) tedizolid phosphate at different concentrations were added into fresh LB medium (or trypticase soy troth medium with 5% defibrinated horse blood) containing different concentrations of human lysozyme in 96-well plate. Then, 20 μl of 1.0×10^7 CFU/ml logarithmic cultures of MRSA or MRSE were added into each well of the plate and co-incubated overnight. Drug-free LB medium in the absence or presence of bacteria served as background control and growth control group, respectively. […] Thus, there would be a series of FICI values. In most of cases, the lowest one among these values was listed to reflect the best achieving degree of combination therapy. In terms of the lowest FICI, FICI≤0.5, 0.5<FICI<1 or FICI≥1, would indicate the combination has synergy, part synergy or non-synergy effects, respectively.

## CC1=C(C(=O)O)N2C(=O)[C@@H](NC(=O)[C@H](N)C3=CCC=CC3)[C@H]2SC1 [Cefradine]
MRSA [1]
  Growth inhibition ratio (mean ± SD, %) MRSA: 48.66 ± 13.26%
MRSE [2]
  Growth inhibition ratio (mean ± SD, %) MRSE: 33.52 ± 23.07%

## C#Cc1cccc(Nc2nc3ccccc3nc2Nc2cccc(C#C)c2)c1.Cl.Cl [TD52 (dihydrochloride)]
MRSA [3]
  MRSA Combination: 0.0926
  MRSA Drug only: 0.6512
  MRSA Inhibition ratio (%): 93.07%
MRSE [4]
  MRSE Combination: 0.1057
  MRSE Drug only: 0.402

## N#C/C(=C1/SC[C@@H](c2ccc(Cl)cc2Cl)S1)n1ccnc1 [Luliconazole]
MRSA [1]
  Growth inhibition ratio (mean ± SD, %) MRSA: −9.69 ± 5.58%
MRSE [2]
  Growth inhibition ratio (mean ± SD, %) MRSE: 22.39 ± 10.76%

## CO[C@@]12[C@H](COC(N)=O)C3=C(C(=O)C(C)=C(N)C3=O)N1C[C@@H]1N[C@@H]12 [Mitomycin C]
MRSA [1]
  Growth inhibition ratio (mean ± SD, %) MRSA: 66.02 ± 45.26%
MRSE [2]
  Growth inhibition ratio (mean ± SD, %) MRSE: 39.12 ± 43.57%

## CC1(C)S[C@@H]2[C@H](NC(=O)Cc3ccccc3)C(=O)N2[C@H]1C(=O)O [Benzylpenicillin potassium]
MRSA [1]
  Growth inhibition ratio (mean ± SD, %) MRSA: 48.39 ± 51.84%
MRSE [2]
  Growth inhibition ratio (mean ± SD, %) MRSE: 3.07 ± 4.93%

## CC1(C)S[C@@H]2[C@H](NC(=O)[C@H](NC(=O)N3CCN(S(C)(=O)=O)C3=O)c3ccccc3)C(=O)N2[C@H]1C(=O)O [Mezlocillin Sodium]
MRSA [1]
  Growth inhibition ratio (mean ± SD, %) MRSA: 90.46 ± 1.59%
MRSE [2]
  Growth inhibition ratio (mean ± SD, %) MRSE: 6.93 ± 8.22%

## N#CC(C#N)=NNc1cccc(Cl)c1 [CCCP, Carbonyl cyanide m-chlorophenyl hydrazone]
MRSA [5]; cells incubated with the inhibitor
  effect of ion-targeting inhibitor on FICI of tedizolid phosphate/lysozyme combination: significant increase in FICI

## CC(C)(O/N=C(\C(=O)N[C@@H]1C(=O)N2C(C(=O)[O-])=C(C[n+]3ccccc3)CS[C@H]12)c1csc(N)n1)C(=O)O [Ceftazidime Pentahydrate]
MRSA [1]
  Growth inhibition ratio (mean ± SD, %) MRSA: 45.07 ± 6.86%
MRSE [2]
  Growth inhibition ratio (mean ± SD, %) MRSE: 34.84 ± 3.23%

## CO/N=C(\C(=O)N[C@@H]1C(=O)N2C(C(=O)O)=C(Cn3ccc(=N)n3CCO)CS[C@H]12)c1csc(N)n1.O=S(=O)(O)O [Cefoselis Sulfate]
MRSA [1]
  Growth inhibition ratio (mean ± SD, %) MRSA: 40.55 ± 6.2%
MRSE [2]
  Growth inhibition ratio (mean ± SD, %) MRSE: 51.56 ± 10.39%

## CO/N=C(\C(=O)N[C@@H]1C(=O)N2C(C(=O)O)=C(CSc3nc(=O)c(=O)[nH]n3C)CS[C@H]12)c1csc(N)n1 [Ceftriaxone Sodium]
MRSA [1]
  Growth inhibition ratio (mean ± SD, %) MRSA: 8.83 ± 1.45%
MRSE [2]
  Growth inhibition ratio (mean ± SD, %) MRSE: 34.56 ± 35.01%

## CO[C@@]1(NC(=O)CSCC#N)C(=O)N2C(C(=O)O)=C(CSc3nnnn3C)CS[C@@H]21 [Cefmetazole sodium]
MRSA [1]
  Growth inhibition ratio (mean ± SD, %) MRSA: 58.25 ± 13.23%
MRSE [2]
  Growth inhibition ratio (mean ± SD, %) MRSE: 6 ± 29.05%

## CCCCCCNC(=O)n1cc(F)c(=O)[nH]c1=O [Carmofur]
MRSA [1]
  Growth inhibition ratio (mean ± SD, %) MRSA: 82.5 ± 7.73%
MRSE [2]
  Growth inhibition ratio (mean ± SD, %) MRSE: 78.06 ± 11.38%

## COC(=O)[C@]12CCC(C)(C)C[C@H]1[C@H]1C(=O)C=C3[C@@]4(C)C=C(C#N)C(=O)C(C)(C)[C@@H]4CC[C@@]3(C)[C@]1(C)CC2 [Bardoxolone Methyl]
MRSA [1]
  Growth inhibition ratio (mean ± SD, %) MRSA: 29.95 ± 40.66%
MRSE [2]
  Growth inhibition ratio (mean ± SD, %) MRSE: 81.67 ± 1.61%

## C[C@@H](O)[C@H]1C(=O)N2C(C(=O)O)=C(S[C@@H]3CN[C@H](CNS(N)(=O)=O)C3)[C@H](C)[C@H]12 [Doripenem Hydrate]
MRSA [1]
  Growth inhibition ratio (mean ± SD, %) MRSA: 82.4 ± 5.63%
MRSE [2]
  Growth inhibition ratio (mean ± SD, %) MRSE: 11.18 ± 6.16%

## Sertaconazole (nitrate)
MRSA [3]
  MRSA Combination: 0.2603
  MRSA Drug only: 0.593
  MRSA Inhibition ratio (%): 61.38%
MRSE [4]
  MRSE Combination: 0.079
  MRSE Drug only: 0.4977
  MRSE Inhibition ratio (%): 93.73%

## CNC[C@H](O)[C@@H](O)[C@H](O)[C@H](O)CO.Nc1nc(-n2cc(C(=O)O)c(=O)c3cc(F)c(N4CC(O)C4)c(Cl)c32)c(F)cc1F [Delafloxacin (meglumine)]
MRSA [3]
  MRSA Combination: 0.0629
  MRSA Drug only: 0.177
  MRSA Inhibition ratio (%): 90.56%
MRSE [4]
  MRSE Combination: 0.0639
  MRSE Drug only: 0.1374

## CC/C=C(\C(=O)N[C@@H]1C(=O)N2C(C(=O)OCOC(=O)C(C)(C)C)=C(COC(N)=O)CS[C@H]12)c1csc(N)n1.Cl [Cefcapene Pivoxil Hydrochloride]
MRSA [1]
  Growth inhibition ratio (mean ± SD, %) MRSA: 18.64 ± 7.49%
MRSE [2]
  Growth inhibition ratio (mean ± SD, %) MRSE: 3.23 ± 3.04%

## poly-l-lysine
MRSA [5]; poly-l-lysine in place of lysozyme, combined with tedizolid phosphate
  FICI: 0.375

## CCOC(=O)c1ccc(O)c(O)c1 [Ethyl 3,4-dihydroxybenzoate]
MRSA [3]
  MRSA Combination: 0.064
  MRSA Drug only: 0.5805
  MRSA Inhibition ratio (%): 97.54%
MRSE [4]
  MRSE Combination: 0.0703
  MRSE Drug only: 0.6328
  MRSE Inhibition ratio (%): 96.68%

## CCC(=O)c1ccc(O)cc1 [Paroxypropione]
MRSA [3]
  MRSA Combination: 0.0655
  MRSA Drug only: 0.3624
  MRSA Inhibition ratio (%): 95.34%
MRSE [4]
  MRSE Combination: 0.0445
  MRSE Drug only: 0.5254
  MRSE Inhibition ratio (%): 101.37%

## [H]/N=C(\N/C(=N/[H])NCCCCCCNC(=N)NC(=N)Nc1ccc(Cl)cc1)Nc1ccc(Cl)cc1 [Chlorhexidine 2HCl]
MRSA [1]
  Growth inhibition ratio (mean ± SD, %) MRSA: 94.16 ± 0.25%
MRSE [2]
  Growth inhibition ratio (mean ± SD, %) MRSE: 12.3 ± 18.27%

## SCP1-IN-1
MRSA [3]
  MRSA Combination: 0.0766
  MRSA Drug only: 0.1762
  MRSA Inhibition ratio (%): 79.55%
MRSE [4]
  MRSE Combination: 0.0698
  MRSE Drug only: 0.1091
  MRSE Inhibition ratio (%): 67.64%

## CO[C@H]1/C=C/O[C@@]2(C)Oc3c(C)c(O)c4c(c3C2=O)C(=O)C=C(NC(=O)/C(C)=C\C=C\[C@H](C)[C@H](O)[C@@H](C)[C@@H](O)[C@@H](C)[C@H](OC(C)=O)[C@@H]1C)C4=O [Rifamycin S]
MRSA [3]
  MRSA Combination: 0.074
  MRSA Drug only: 0.1545
  MRSA Inhibition ratio (%): 77.78%
MRSE [4]
  MRSE Combination: 0.0967
  MRSE Drug only: 0.5935
  MRSE Inhibition ratio (%): 91.58%

## CC[C@H]1OC(=O)C[C@@H](O)[C@H](C)[C@@H](O[C@@H]2O[C@H](C)[C@@H](O)[C@H](N(C)C)[C@H]2O)[C@@H](CCN2C[C@H](C)C[C@H](C)C2)C[C@@H](C)C(=O)/C=C/C(C)=C/[C@@H]1CO[C@@H]1O[C@H](C)[C@@H](O)[C@@H](OC)[C@H]1OC [Tilmicosin]
MRSA [1]
  Growth inhibition ratio (mean ± SD, %) MRSA: 91.59 ± 0.63%
MRSE [2]
  Growth inhibition ratio (mean ± SD, %) MRSE: 4.91 ± 8.1%

## CC1(C)S[C@@H]2[C@H](NC(=O)[C@H](N)c3ccccc3)C(=O)N2[C@H]1C(=O)OCOC(=O)[C@@H]1N2C(=O)C[C@H]2S(=O)(=O)C1(C)C [Sultamicillin]
MRSA [1]
  Growth inhibition ratio (mean ± SD, %) MRSA: 58.05 ± 16.75%
MRSE [2]
  Growth inhibition ratio (mean ± SD, %) MRSE: 45.94 ± 13.49%

## CCN1CCN(C(=O)N[C@@H](C(=O)N[C@@H]2C(=O)N3C(C(=O)O)=C(CSc4nnnn4C)CS[C@H]23)c2ccc(O)cc2)C(=O)C1=O [Cefoperazone]
MRSA [1]
  Growth inhibition ratio (mean ± SD, %) MRSA: 71.74 ± 5.27%
MRSE [2]
  Growth inhibition ratio (mean ± SD, %) MRSE: −16.2 ± 8.93%

## C[C@@H](O)[C@H]1C(=O)N2C(C(=O)O)=C(S[C@@H]3CN[C@H](C(=O)N(C)C)C3)[C@H](C)[C@H]12 [Meropenem Trihydrate]
MRSA [1]
  Growth inhibition ratio (mean ± SD, %) MRSA: 48.19 ± 11.14%
MRSE [2]
  Growth inhibition ratio (mean ± SD, %) MRSE: 20.45 ± 65.79%

## CC(=O)c1c(O)cc(O)c(C(C)=O)c1O [2,4-Diacetylphloroglucinol]
MRSA [3]
  MRSA Combination: 0.0588
  MRSA Drug only: 0.2097
  MRSA Inhibition ratio (%): 95.09%
MRSE [4]
  MRSE Combination: 0.0686
  MRSE Drug only: 0.09
  MRSE Inhibition ratio (%): 54.87%
